This passage reports IC50 results from US11084800B2 (Achillion Pharmaceuticals, Inc., priority 2017, dated 2021).

By IC50 is commonly meant the concentration that gives 50% inhibition.

The test deals with Human Factor D (Homo sapiens (Human), UniProt P00746). Briefly: Human Factor D Assay. The conditions noted are these: Table 6; Factor D 80 nM, substrate Z-L-Lys-SBz; read-out: IC50. The class given is biochemical. The essentials: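 Thioester substrate Z-L-Lys-SBz (100 μM) with Ellman's reagent DTNB (100 μM) reports activity of 80 nM human serum-derived enzyme, kinetically at 405 nm over 30 min. Compound preincubated 5 min, room temperature, pH 7.5 Tris/1 M NaCl; IC50 by nonlinear fit of rates.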
Sequence of Human Factor D (P00746 26-253): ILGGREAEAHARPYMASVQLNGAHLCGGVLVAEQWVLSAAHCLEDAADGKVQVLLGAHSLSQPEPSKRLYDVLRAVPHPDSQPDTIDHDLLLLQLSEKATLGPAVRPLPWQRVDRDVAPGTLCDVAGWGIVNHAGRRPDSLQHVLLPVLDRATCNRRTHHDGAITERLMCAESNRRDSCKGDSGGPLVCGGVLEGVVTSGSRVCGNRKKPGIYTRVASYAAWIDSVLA
`Cc1ncc(-c2ccc3c(c2)c(C(C)O)nn3CC(=O)N2[C@H](C(=O)Nc3nc(Br)ccc3C)C[C@@]3(C)C[C@@H]23)cn1` (stereo partly drawn) [Compound 72, (1R,3S,5R)-N-(6-bromo-3-methylpyridin-2-yl)-2-(2-(3-(1-hydroxyethyl)-5-(2-methylpyrimidin-5-yl)-1H-indazol-1-yl)acetyl)-5-methyl-2-azabicyclo[3.1.0]hexane-3-carboxamide]: the IC50 was 1000 to 10000 nM.

For `CC(=O)c1nn(CC(=O)N2[C@H](C(=O)Nc3nc(Br)cc4ccccc34)C[C@@]3(C)C[C@@H]23)c2ccc(-c3cnc(C)nc3)cc12` [Compound 73, (1R,3S,5R)-2-(2-(3-Acetyl-5-(2-methylpyrimidin-5-yl)-1H-indazol-1-yl)acetyl)-N-(3-bromoisoquinolin-1-yl)-5-methyl-2-azabicyclo[3.1.0]hexane-3-carboxamide], the IC50 is less than 1000 nM. For `CC(=O)c1nn(CC(=O)N2[C@H](C(=O)Nc3nc(Br)ccc3C)C[C@@]3(CN(C)C)C[C@@H]23)c2c(CF)cc(-c3cnc(C)nc3)cc12` [Compound 74, (1R,3S,5R)-2-(2-(3-Acetyl-7-(fluoromethyl)-5-(2-methylpyrimidin-5-yl)-1H-indazol-1-yl)acetyl)-N-(6-bromo-3-methylpyridin-2-yl)-5-((dimethylamino)methyl)-2-azabicyclo[3.1.0]hexane-3-carboxamide], the IC50 is less than 1000 nM. `CC(=O)c1nn(CC(=O)N2[C@H]3C[C@@]3(CN(C)C)C[C@H]2C(=O)Nc2nc(Br)ccc2C)c2c(CF)cc(-c3cnc(C)nc3)cc12` [Compound 75, (1S,3S,5S)-2-(2-(3-Acetyl-7-(fluoromethyl)-5-(2-methylpyrimidin-5-yl)-1H-indazol-1-yl)acetyl)-N-(6-bromo-3-methylpyridin-2-yl)-5-((dimethylamino)methyl)-2-azabicyclo[3.1.0]hexane-3-carboxamide]: the concentration for half-maximal inhibition (IC50) was less than 1000 nM.

Regarding `CC(=O)c1nn(CC(=O)N2C[C@@](F)(CF)C[C@H]2C(=O)Nc2nc(Br)ccc2C)c2c(CF)cc(-c3cnc(C)nc3)cc12` [Compound 76, (2S,4R)-1-(2-(3-acetyl-7-(fluoromethyl)-5-(2-methylpyrimidin-5-yl)-1H-indazol-1-yl)acetyl)-N-(6-bromo-3-methylpyridin-2-yl)-4-fluoro-4-(fluoromethyl)pyrrolidine-2-carboxamide], the IC50 was less than 1000 nM. In the case of `CC(=O)c1nn(CC(=O)N2[C@H]3C[C@@]3(C)C[C@H]2C(=O)Nc2nc(Br)ccc2C)c2c(C(F)(F)F)cc(-c3cnc(C)nc3)cc12` [Compound 77, (1S,3S,5S)-2-(2-(3-acetyl-5-(2-methylpyrimidin-5-yl)-7-(trifluoromethyl)-1H-indazol-1-yl)acetyl)-N-(6-bromo-3-methylpyridin-2-yl)-5-methyl-2-azabicyclo[3.1.0]hexane-3-carboxamide], the IC50 was greater than 10000 nM. Regarding `CC(=O)c1nn(CC(=O)N2[C@H](C(=O)Nc3nc(Br)ccc3C)C[C@@]3(CN4CCN(C(C)=O)CC4)C[C@@H]23)c2ccc(-c3cnc(C)nc3)cc12` [Compound 78, (1R,3S,5R)-2-(2-(3-acetyl-5-(2-methylpyrimidin-5-yl)-1H-indazol-1-yl)acetyl)-5-((4-acetylpiperazin-1-yl)methyl)-N-(6-bromo-3-methylpyridin-2-yl)-2-azabicyclo[3.1.0]hexane-3-carboxamide], the IC50 was less than 1000 nM. Turning to `CC(=O)c1nn(CC(=O)N2[C@H]3C[C@@]3(CN3CCN(C(C)=O)CC3)C[C@H]2C(=O)Nc2nc(Br)ccc2C)c2ccc(-c3cnc(C)nc3)cc12` [Compound 79, (1S,3S,5S)-2-(2-(3-acetyl-5-(2-methylpyrimidin-5-yl)-1H-indazol-1-yl)acetyl)-5-((4-acetylpiperazin-1-yl)methyl)-N-(6-bromo-3-methylpyridin-2-yl)-2-azabicyclo[3.1.0]hexane-3-carboxamide], the IC50 fell in the range of 1000 to 10000 nM.

In the case of `CC(=O)c1nn(CC(=O)N2[C@H](C(=O)NCCC(C)(C)C)C[C@@]3(C)C[C@@H]23)c2c(C)cc(-c3cnc(C)nc3)cc12` [Compound 80, (1R,3S,5R)-2-(2-(3-Acetyl-7-methyl-5-(2-methylpyrimidin-5-yl)-1H-indazol-1-yl)acetyl)-N-(3,3-dimethylbutyl)-5-methyl-2-azabicyclo[3.1.0]hexane-3-carboxamide], the IC50 is less than 1000 nM. `CC(=O)c1nn(CC(=O)N2[C@H](C(=O)NCCOC(F)(F)F)C[C@@]3(C)C[C@@H]23)c2c(C)cc(-c3cnc(C)nc3)cc12` [Compound 81, (1R,3S,5R)-2-(2-(3-Acetyl-7-methyl-5-(2-methylpyrimidin-5-yl)-1H-indazol-1-yl)acetyl)-5-methyl-N-(2-(trifluoromethoxy)ethyl)-2-azabicyclo[3.1.0]hexane-3-carboxamide]: the IC50 is less than 1000 nM. Then `COc1cccc(NC(=O)[C@@H]2C[C@@]3(C)C[C@H]3N2C(=O)Cn2nc(C(C)=O)c3cc(-c4cnc(C)nc4)cc(C)c32)n1` [Compound 82, (1R,3S,5R)-2-(2-(3-Acetyl-7-methyl-5-(2-methylpyrimidin-5-yl)-1H-indazol-1-yl)acetyl)-N-(6-methoxypyridin-2-yl)-5-methyl-2-azabicyclo[3.1.0]hexane-3-carboxamide], with less than 1000 nM; and `CC(=O)c1nn(CC(=O)N2C[C@H](F)C[C@H]2C(=O)Nc2cccc(O)n2)c2ccc(-c3cnc(C)nc3)cc12` [Compound 83, (2S,4R)-1-(2-(3-Acetyl-5-(2-methylpyrimidin-5-yl)-1H-indazol-1-yl)acetyl)-4-fluoro-N-(6-hydroxypyridin-2-yl)pyrrolidine-2-carboxamide], with 1000 to 10000 nM.

As to `COCc1ccc(Br)c(NC(=O)[C@@H]2C[C@@]3(C)C[C@H]3N2C(=O)Cn2nc(C(C)=O)c3cc(-c4cnc(C)nc4)cc(COC)c32)n1` [Compound 86, (1R,3S,5R)-2-(2-(3-acetyl-7-(methoxymethyl)-5-(2-methylpyrimidin-5-yl)-1H-indazol-1-yl)acetyl)-N-(3-bromo-6-(methoxymethyl)pyridin-2-yl)-5-methyl-2-azabicyclo[3.1.0]hexane-3-carboxamide], the IC50 was greater than 10000 nM. For `CC(=O)c1nn(CC(=O)N2[C@H](C(=O)Nc3nc(Br)ccc3C)C[C@@]3(CN4CCNCC4)C[C@@H]23)c2c(C)cc(-c3cnc(C)nc3)cc12` [Compound 88, (1R,3S,5R)-2-(2-(3-Acetyl-7-methyl-5-(2-methylpyrimidin-5-yl)-1H-indazol-1-yl)acetyl)-N-(6-bromo-3-methylpyridin-2-yl)-5-(piperazin-1-ylmethyl)-2-azabicyclo[3.1.0]hexane-3-carboxamide], the IC50 is less than 1000 nM. For the compound `CC(=O)c1nn(CC(=O)N2[C@H](C(=O)Nc3nc(Br)ccc3C)C[C@@]3(CN4CC5(CCC5)C4)C[C@@H]23)c2c(C)cc(-c3cnc(C)nc3)cc12` [Compound 89, (1R,3S,5R)-5-(2-Azaspiro[3.3]heptan-2-ylmethyl)-2-(2-(3-acetyl-7-methyl-5-(2-methylpyrimidin-5-yl)-1H-indazol-1-yl)acetyl)-N-(6-bromo-3-methylpyridin-2-yl)-2-azabicyclo[3.1.0]hexane-3-carboxamide], the 50% inhibitory concentration (IC50) was less than 1000 nM. As to `CC(=O)c1nn(CC(=O)N2[C@H]3C[C@@]3(C)C[C@H]2C(=O)Nc2nc(Br)ccc2C)c2c(C3CC3)cc(-c3cnc(C)nc3)cc12` [Compound 90, (1S,3S,5S)-2-(2-(3-acetyl-7-cyclopropyl-5-(2-methylpyrimidin-5-yl)-1H-indazol-1-yl)acetyl)-N-(6-bromo-3-methylpyridin-2-yl)-5-methyl-2-azabicyclo[3.1.0]hexane-3-carboxamide], the IC50 is less than 1000 nM. Take `CC(=O)c1nn(CC(=O)N2[C@H](C(=O)Nc3nc(Br)ccc3CN(C)C)C[C@@]3(C)C[C@@H]23)c2ccc(-c3cnc(C)nc3)cc12` [Compound 91]: the IC50 is less than 1000 nM. In the case of `C=CCOC[C@@]12C[C@@H](C(=O)Nc3nc(Br)ccc3C=C)N(C(=O)Cn3nc(C(C)=O)c4cc(-c5cnc(C)nc5)ccc43)[C@@H]1C2` [Compound 93, (1R,3S,5S)-2-(2-(3-Acetyl-5-(2-methylpyrimidin-5-yl)-1H-indazol-1-yl)acetyl)-5-((allyloxy)methyl)-N-(6-bromo-3-vinylpyridin-2-yl)-2-azabicyclo[3.1.0]hexane-3-carboxamide], the 50% inhibitory concentration (IC50) was less than 1000 nM. Then `CNC[C@@]12C[C@@H](C(=O)Nc3nc(Br)ccc3C)N(C(=O)Cn3nc(C(C)=O)c4cc(-c5cnc(C)nc5)cc(C)c43)[C@@H]1C2` [Compound 94, (1R,3S,5R)-2-(2-(3-Acetyl-7-methyl-5-(2-methylpyrimidin-5-yl)-1H-indazol-1-yl)acetyl)-N-(6-bromo-3-methylpyridin-2-yl)-5-((methylamino)methyl)-2-azabicyclo[3.1.0]hexane-3-carboxamide], with less than 1000 nM; and `CC(=O)c1nn(CC(=O)N2[C@H](C(=O)Nc3nc(Br)ccc3C)C[C@@]3(CNC(=O)C4=C(F)CCC4)C[C@@H]23)c2c(C)cc(-c3cnc(C)nc3)cc12` [Compound 95, (1R,3S,5R)-2-(2-(3-Acetyl-7-methyl-5-(2-methylpyrimidin-5-yl)-1H-indazol-1-yl)acetyl)-N-(6-bromo-3-methylpyridin-2-yl)-5-((2-fluorocyclopent-1-enecarboxamido)methyl)-2-azabicyclo[3.1.0]hexane-3-carboxamide], with less than 1000 nM; and `CC(=O)NC[C@@]12C[C@@H](C(=O)Nc3nc(Br)ccc3C)N(C(=O)Cn3nc(C(C)=O)c4cc(-c5cnc(C)nc5)cc(C)c43)[C@@H]1C2` [Compound 96, (1R,3S,5R)-5-(Acetamidomethyl)-2-(2-(3-acetyl-7-methyl-5-(2-methylpyrimidin-5-yl)-1H-indazol-1-yl)acetyl)-N-(6-bromo-3-methylpyridin-2-yl)-2-azabicyclo[3.1.0]hexane-3-carboxamide], with less than 1000 nM.
